Laboratory results taken from patent US9107964B2, “Radioactive fluorine-labeled compound” (NIHON MEDI-PHYSICS CO., LTD., priority 2011, dated 2015).
Entries after “also recorded” stand apart in the source; their conditions may differ.

Legend:
Format in all cases: in vivo, mouse (Balb/c nu/nu)
[1] = tested on: EMT6 tumor-bearing model mice; assay: Biodistribution in tumor and organs of tumor-bearing mouse (Example 14); details: for Blood / Gall bladder / Heart / Kidney / Large intestine / Liver / Lung / Muscle / Small intestine / Stomach / T/B (tumor/blood ratio) / T/M (tumor/muscle ratio) / Tumor / Urine: mean; for Blood clearance and urinary excretion: compared with [^18F]FMISO, 60 and 120 minutes after administration
Method: The biodistribution of compounds 1 to 3 and [^18F]FMISO in a tumor and each of the organs of a tumor-bearing mouse was measured.
Tumor-bearing model mice used in this experiment were the same as those prepared in Example 10, and 3 or 4 cases that had attained a tumor volume of 200 to 400 mm^3 were selected from each group. The tumor-bearing model mouse was placed under isoflurane anesthesia, pimonidazole that is a hypoxic marker, was administered via a tail vein, and at 10 minutes thereafter, the respective labeled compound was administered. The tumor-bearing model mouse was sacrificed at 60 minutes and 120 minutes after administration. All of the tumor-bearing model mice were sacrificed by blood-letting from the abdominal aorta or by cardiocentesis, and dissection was carried out immediately thereafter. Other than the tumor, the blood, heart, lung, stomach, liver, gallbladder, kidney, small intestine and large intestine, muscle, and urine were sampled, and the other tissues were defined as the remaining whole body. After the weight of each tissue sampled was measured, the amount of radioactivity of the tissue was measured using a gamma counter, and the biodistribution of each of the labeled compounds was compared by converting it into % ID/g (% injection dose/g organ) of each tissue.
In order to examine a hypoxic state within the tumor, immunohistochemical staining of the sample tumor was carried out so as to ascertain whether or not the interior of the tumor was hypoxic. The sampled tumor was fixed using a 20% formalin buffer, and a paraffin block was prepared using an automatic paraffin-embedding apparatus (model: VIP-5-Jr-J0, Sakura Finetek). A slice (thickness: 3 μm) was prepared by means of a microtome (model: Tissue-Tek Feather Trustome, Sakura Finetek). Immunohistochemical staining was carried out by the same method as in Example 12.

[2] = tested on: mouse-derived breast cancer cell line (EMT6) tumor-bearing model mice; assay: PET imaging of tumor-bearing model mice (incorporation into tumor cells, Example 10); details: 60 minutes after administration; for Physiological accumulation in the liver compared with [^18F]FMISO: coronal tomographic PET image; for Excretion route: from coronal tomographic PET image
Method: Accumulation of compound 1, compound 2, and compound 3 in tumor cells in vivo was studied as follows using a mouse-derived breast cancer cell line (EMT6).
Preparation of tumor-bearing model mice: the animals used were six-week-old female Balb/c nu/nu mice (obtained from Japan SLC). Using these animals, a Matrigel suspension (cell count 2.5×10^6 cells/0.05 mL) of EMT6, which is a mouse-derived breast cancer cell line (obtained from ATCC), was subcutaneously implanted in a site from the right rib to the right shoulder. It was confirmed on the third day after implantation that the tumor cells were fixed, and the tumor volume attained 200 to 400 mm^3 9 to 11 days after implantation.

[3] = tested on: hypoxic region of EMT6 tumor (pimonidazole-positive area); assay: Correlation between autoradiographic signal intensity (PSL value) and pimonidazole-positive area (Example 13); details: tumor tissue sections after PET imaging
Method: In order to evaluate whether or not the compound related to the present invention can quantitatively visualize a hypoxic region of a tumor, the following experiment was carried out using compounds 1 to 3 and [^18F]FMISO.
Using a microscope system (model: BZ-9000, Keyence Corporation) a high magnification image of a pimonidazole-positive site was acquired using the entire image of a pathology image obtained by immunohistochemical staining in the Example 12 and a 10× objective lens. The high magnification image was formed with respect to a randomly selected image region. At the same time the image acquisition site was recorded as a navigation image by use of the navigation function of the microscope system. The acquired high magnification image was subjected to image processing, and a pimonidazole-positive area present in the high magnification image was determined.
The autoradiographic image and the stained image of each labeled compound used were those acquired in the Example 12. The resolution of the navigation image was made to match the resolution of the autoradiographic image, and the geometrical positions of two images were aligned using image analysis software.
In the autoradiographic image, an ROI was set for the site that coincided with the high magnification image acquisition site, and the PSL value (Photo-Stimulated Luminescence value) of the ROI was determined. Furthermore, an ROI was set for a site of the same image that contained no sample, and the PSL value thereof was defined as the background. The PSL value of the background was subtracted from the PSL value of the high magnification image acquisition site to obtain the net PSL value. The hypoxic marker pimonidazole-positive area was plotted on the abscissa and the PSL value in the autoradiographic image on the ordinate, and the correlation factor was determined. This series of operations was carried out for each of the labeled compounds.

[4] = 60 minutes after administration
[5] = 120 minutes after administration

Row | Blood [1, 4] [% ID/g] | Gall bladder [1, 4] [% ID/g] | Heart [1, 4] [% ID/g] | Kidney [1, 4] [% ID/g] | Large intestine [1, 4] [% ID/g] | Liver [1, 4] [% ID/g] | Lung [1, 4] [% ID/g] | Muscle [1, 4] [% ID/g] | Small intestine [1, 4] [% ID/g] | Stomach [1, 4] [% ID/g] | T/B (tumor/blood ratio) [1, 4] | T/M (tumor/muscle ratio) [1, 4] | Tumor [1, 4] [% ID/g] | Urine [1, 4] [% ID] | Blood [1, 5] [% ID/g] | Gall bladder [1, 5] [% ID/g] | Heart [1, 5] [% ID/g] | Kidney [1, 5] [% ID/g] | Large intestine [1, 5] [% ID/g] | Liver [1, 5] [% ID/g] | SMILES | also measured
1 | 0.60 | 7.54 | 1.32 | 1.86 | 0.96 | 1.14 | 0.89 | 1.25 | 2.35 | 0.48 | 2.11 | 0.91 | 1.13 | 80.42 | 0.25 | 7.33 | 0.74 | 0.82 | 0.88 | 0.54 | O=[N+]([O-])c1nc(CO)cn1CC(CO)(CO)C[18F] [Compound 2, 1-(2,2-Dihydroxymethyl-3-[^18F]fluoropropyl)-4-hydroxymethyl-2-nitroimidazole] | Lung [1, 5]: 0.34 % ID/g; Muscle [1, 5]: 0.47 % ID/g; Small intestine [1, 5]: 1.63 % ID/g; Stomach [1, 5]: 0.25 % ID/g; T/B (tumor/blood ratio) [1, 5]: 3.18; T/M (tumor/muscle ratio) [1, 5]: 1.68; Tumor [1, 5]: 0.78 % ID/g; Urine [1, 5]: 90.92 % ID; Blood clearance and urinary excretion [1]: even more rapid; Sites of accumulation on coronal tomographic image [2]: intense accumulation of compound 2 and compound 3 was found in the bladder and accumulation thereof was found in the intestinal tract; Tumor-specific accumulation on axial tomographic image [2]: tumor-specific accumulation; Physiological accumulation in the liver compared with [^18F]FMISO [2]: low physiological accumulation in the liver; Excretion route [2]: excreted mainly via the kidney and urinary tract system; Correlation coefficient (pimonidazole-positive area vs PSL value in autoradiographic image) [3]: 0.80
2 | 2.81 | 16.71 | 3.46 | 9.95 | 5.40 | 4.46 | 2.92 | 2.66 | 4.68 | 1.99 | 0.86 | 0.87 | 2.05 | 45.80 | 1.14 | 15.45 | 1.82 | 9.20 | 6.89 | 2.13 | O=[N+]([O-])c1nccn1CCC(CO)(CO)C[18F] [Compound 3, 1-(3,3-Dihydroxymethyl-4-[^18F]fluorobutyl)-2-nitroimidazole] | Lung [1, 5]: 1.38 % ID/g; Muscle [1, 5]: 1.44 % ID/g; Small intestine [1, 5]: 3.66 % ID/g; Stomach [1, 5]: 1.26 % ID/g; T/B (tumor/blood ratio) [1, 5]: 2.11; T/M (tumor/muscle ratio) [1, 5]: 1.62; Tumor [1, 5]: 1.93 % ID/g; Urine [1, 5]: 68.78 % ID; Blood clearance and urinary excretion [1]: rapid blood clearance and urinary excretion compared with [^18F]FMISO; Sites of accumulation on coronal tomographic image [2]: intense accumulation of compound 2 and compound 3 was found in the bladder and accumulation thereof was found in the intestinal tract; also recorded: accumulation of compound 3 in the gallbladder; Tumor-specific accumulation on axial tomographic image [2]: tumor-specific accumulation; Physiological accumulation in the liver compared with [^18F]FMISO [2]: low physiological accumulation in the liver; Excretion route [2]: excreted via the kidney and urinary tract system and the hepatobiliary system; Correlation coefficient (pimonidazole-positive area vs PSL value in autoradiographic image) [3]: 0.61
3 | 1.70 | 26.34 | 2.35 | 4.23 | 3.71 | 3.34 | 1.96 | 1.71 | 3.72 | 1.53 | 1.42 | 1.39 | 2.38 | 62.13 | 0.75 | 8.21 | 1.90 | 2.91 | 2.37 | 4.31 | O=[N+]([O-])c1nccn1CC(CO)(CO)C[18F] [Compound 1, 1-(2,2-Dihydroxymethyl-3-[^18F]fluoropropyl)-2-nitroimidazole] | Lung [1, 5]: 0.89 % ID/g; Muscle [1, 5]: 0.84 % ID/g; Small intestine [1, 5]: 2.78 % ID/g; Stomach [1, 5]: 0.88 % ID/g; T/B (tumor/blood ratio) [1, 5]: 2.47; T/M (tumor/muscle ratio) [1, 5]: 2.03; Tumor [1, 5]: 1.65 % ID/g; Urine [1, 5]: 77.76 % ID; Blood clearance and urinary excretion [1]: rapid blood clearance and urinary excretion compared with [^18F]FMISO; Sites of accumulation on coronal tomographic image [2]: intense accumulation of compound 1 in the bladder, and accumulation thereof in the gallbladder and the intestinal tract; Tumor-specific accumulation on axial tomographic image [2]: tumor-specific accumulation separated from normal tissue such as muscle; Physiological accumulation in the liver compared with [^18F]FMISO [2]: low physiological accumulation in the liver; Excretion route [2]: excreted via the kidney and urinary tract excretion and hepatobiliary excretion systems; Correlation coefficient (pimonidazole-positive area vs PSL value in autoradiographic image) [3]: 0.85
